{"source": "ChEMBL document CHEMBL6127104", "about": "“Prorocentin-5: A Cytotoxic Polyketide from the Benthic Marine Dinoflagellate Prorocentrum lima” (J Nat Prod, 2024)", "key": {"HepG2 [1]": {"tested_on": "HepG2", "assay": "Induction of apoptosis in human HepG2 cells assessed as early apoptotic cells at 0.1 uM incubated for 24 hrs by Annexin V-FITC/PI staining based flow cytometric analysis (reference value: 4.85 %)", "assay_type": "functional"}, "N2a [2]": {"tested_on": "N2a", "assay": "Induction of cell cycle arrest in mouse Neuro2a cells assessed as accumulation of cells at G2/M phase at 0.1 uM incubated for 24 hrs by flow cytometric analysis (reference value: 8.0 %)", "assay_type": "functional"}, "HepG2 [3]": {"tested_on": "HepG2", "assay": "Induction of apoptosis in human HepG2 cells assessed as late apoptotic cells at 0.1 uM incubated for 24 hrs by Annexin V-FITC/PI staining based flow cytometric analysis (reference value: 2.05 %)", "assay_type": "functional"}, "N2a [4]": {"tested_on": "N2a", "assay": "Induction of cell cycle arrest in mouse Neuro2a cells assessed as accumulation of cells at S phase at 1 uM incubated for 24 hrs by flow cytometric analysis (reference value: 30.5 %)", "assay_type": "functional"}, "HCT-116 [5]": {"tested_on": "HCT-116", "assay": "Cytotoxicity against human HCT-116 cells assessed as inhibition of cell proliferation incubated for 24 hrs by MTT assay", "assay_type": "functional, cell-based", "settings": "HCT-116, 24 h"}, "N2a [6]": {"tested_on": "N2a", "assay": "Induction of cell cycle arrest in mouse Neuro2a cells assessed as accumulation of cells at G2/M phase at 1 uM incubated for 24 hrs by flow cytometric analysis (reference value: 8.0 %)", "assay_type": "functional"}, "N2a [7]": {"tested_on": "N2a", "assay": "Induction of apoptosis in mouse Neuro2a cells assessed as fold increase in early apoptotic cells at 1 uM incubated for 24 hrs by Annexin V-FITC/PI staining based analysis", "assay_type": "functional"}, "HCT-116 [8]": {"tested_on": "HCT-116", "assay": "Induction of apoptosis in human HCT-116 cells assessed as late apoptotic cells at 1 uM incubated for 24 hrs by Annexin V-FITC/PI staining based flow cytometric analysis (reference value: 6.15 %)", "assay_type": "functional"}, "HCT-116 [9]": {"tested_on": "HCT-116", "assay": "Induction of cell cycle arrest in human HCT-116 cells assessed as accumulation of cells at G0/G1 phase at 1 uM incubated for 24 hrs by flow cytometric analysis (reference value: 90.2 %)", "assay_type": "functional"}, "HCT-116 [10]": {"tested_on": "HCT-116", "assay": "Induction of apoptosis in human HCT-116 cells assessed as necrotic cells at 0.1 uM incubated for 24 hrs by Annexin V-FITC/PI staining based flow cytometric analysis (reference value: 1.45 %)", "assay_type": "functional"}, "N2a [11]": {"tested_on": "N2a", "assay": "Induction of apoptosis in mouse Neuro2a cells assessed as late apoptotic cells at 1 uM incubated for 24 hrs by Annexin V-FITC/PI staining based analysis (reference value: 0.81 %)", "assay_type": "functional"}, "N2a [12]": {"tested_on": "N2a", "assay": "Cytotoxicity against mouse Neuro2a cells assessed as inhibition of cell proliferation incubated for 24 hrs by MTT assay", "assay_type": "functional, cell-based"}, "HepG2 [13]": {"tested_on": "HepG2", "assay": "Induction of apoptosis in human HepG2 cells assessed as early apoptotic cells at 1 uM incubated for 24 hrs by Annexin V-FITC/PI staining based flow cytometric analysis (reference value: 4.85 %)", "assay_type": "functional"}, "N2a [14]": {"tested_on": "N2a", "assay": "Induction of apoptosis in mouse Neuro2a cells assessed as early apoptotic cells at 0.1 uM incubated for 24 hrs by Annexin V-FITC/PI staining based analysis (reference value: 3.17 %)", "assay_type": "functional"}, "HepG2 [15]": {"tested_on": "HepG2", "assay": "Induction of apoptosis in human HepG2 cells assessed as viable cells at 0.1 uM incubated for 24 hrs by Annexin V-FITC/PI staining based flow cytometric analysis (reference value: 90.08 %)", "assay_type": "functional", "settings": "read-out: Activity"}, "HepG2 [16]": {"tested_on": "HepG2", "assay": "Induction of cell cycle arrest in human HepG2 cells assessed as accumulation of cells at G0/G1 phase at 0.1 uM incubated for 24 hrs by flow cytometric analysis (reference value: 66.4 %)", "assay_type": "functional"}, "N2a [17]": {"tested_on": "N2a", "assay": "Induction of apoptosis in mouse Neuro2a cells assessed as viable cells at 0.1 uM incubated for 24 hrs by Annexin V-FITC/PI staining based analysis (reference value: 91.70 %)", "assay_type": "functional", "settings": "read-out: Activity"}, "N2a [18]": {"tested_on": "N2a", "assay": "Induction of apoptosis in mouse Neuro2a cells assessed as necrotic cells at 1 uM incubated for 24 hrs by Annexin V-FITC/PI staining based analysis (reference value: 4.33 %)", "assay_type": "functional"}, "HCT-116 [19]": {"tested_on": "HCT-116", "assay": "Induction of apoptosis in human HCT-116 cells assessed as viable cells at 1 uM incubated for 24 hrs by Annexin V-FITC/PI staining based flow cytometric analysis (reference value: 90.50 %)", "assay_type": "functional", "settings": "read-out: Activity"}, "HCT-116 [20]": {"tested_on": "HCT-116", "assay": "Induction of apoptosis in human HCT-116 cells assessed as late apoptotic cells at 0.1 uM incubated for 24 hrs by Annexin V-FITC/PI staining based flow cytometric analysis (reference value: 6.15 %)", "assay_type": "functional"}, "HepG2 [21]": {"tested_on": "HepG2", "assay": "Cytotoxicity against human HepG2 cells assessed as inhibition of cell proliferation AT 0.1 to 10 uM incubated for 24 hrs by MTT assay", "assay_type": "functional, cell-based", "settings": "dose 0.1-10 µM"}, "HCT-116 [22]": {"tested_on": "HCT-116", "assay": "Induction of cell cycle arrest in human HCT-116 cells assessed as accumulation of cells at G0/G1 phase at 0.1 uM incubated for 24 hrs by flow cytometric analysis (reference value: 90.2 %)", "assay_type": "functional"}, "HepG2 [23]": {"tested_on": "HepG2", "assay": "Induction of cell cycle arrest in human HepG2 cells assessed as accumulation of cells at G0/G1 phase at 1 uM incubated for 24 hrs by flow cytometric analysis (reference value: 66.4 %)", "assay_type": "functional"}, "N2a [24]": {"tested_on": "N2a", "assay": "Induction of apoptosis in mouse Neuro2a cells assessed as viable cells at 1 uM incubated for 24 hrs by Annexin V-FITC/PI staining based analysis (reference value: 91.70 %)", "assay_type": "functional", "settings": "read-out: Activity"}, "HCT-116 [25]": {"tested_on": "HCT-116", "assay": "Induction of apoptosis in human HCT-116 cells assessed as early apoptotic cells at 1 uM incubated for 24 hrs by Annexin V-FITC/PI staining based flow cytometric analysis (reference value: 1.90 %)", "assay_type": "functional"}, "HepG2 [26]": {"tested_on": "HepG2", "assay": "Induction of apoptosis in human HepG2 cells assessed as viable cells at 1 uM incubated for 24 hrs by Annexin V-FITC/PI staining based flow cytometric analysis (reference value: 90.08 %)", "assay_type": "functional", "settings": "read-out: Activity"}}, "note": "Activity calls are given as the source filed them. No cut-off for these calls is given here.", "data": [{"molecule": "CC(=O)CCCCC[C@@H](O)[C@H](C)C[C@H](C)CC[C@@H]1O[C@H]1C[C@@H]1CC[C@@H](/C=C/C=C/C[C@H](O)C[C@H]2C=C[C@@H](C=C(C)C)O2)O1", "values": [{"measurement": "Activity", "setting": "HepG2 [1]", "value": 30.92, "unit": "%"}, {"measurement": "Activity", "setting": "N2a [2]", "value": 10.4, "unit": "%"}, {"measurement": "Activity", "setting": "HepG2 [3]", "value": 15.02, "unit": "%"}, {"measurement": "Activity", "setting": "N2a [4]", "value": 43.1, "unit": "%"}, {"measurement": "IC50", "setting": "HCT-116 [5]", "value": 4.4, "unit": "µM"}, {"measurement": "Activity", "setting": "N2a [6]", "value": 13.7, "unit": "%"}, {"measurement": "fold change (FC)", "setting": "N2a [7]", "value": 5.5}, {"measurement": "Activity", "setting": "HCT-116 [8]", "value": 17.52, "unit": "%"}, {"measurement": "Activity", "setting": "HCT-116 [9]", "value": 6.8, "unit": "%"}, {"measurement": "Activity", "setting": "HCT-116 [10]", "value": 5.4, "unit": "%"}, {"measurement": "Activity", "setting": "N2a [11]", "value": 24.75, "unit": "%"}, {"measurement": "IC50", "setting": "N2a [12]", "value": 2.8, "unit": "µM"}, {"measurement": "Activity", "setting": "HepG2 [13]", "value": 27.87, "unit": "%"}, {"measurement": "Activity", "setting": "N2a [14]", "value": 15.67, "unit": "%"}, {"measurement": "viability at 0.1 µM", "setting": "HepG2 [15]", "value": 52.2, "unit": "%"}, {"measurement": "Activity", "setting": "HepG2 [16]", "value": 54.5, "unit": "%"}, {"measurement": "viability at 0.1 µM", "setting": "N2a [17]", "value": 76, "unit": "%"}, {"measurement": "Activity", "setting": "N2a [18]", "value": 2.85, "unit": "%"}, {"measurement": "viability at 1 µM", "setting": "HCT-116 [19]", "value": 58.5, "unit": "%"}, {"measurement": "Activity", "setting": "HCT-116 [20]", "value": 14.55, "unit": "%"}, {"measurement": "Activity", "setting": "HepG2 [21]", "value": "Active"}, {"measurement": "Activity", "setting": "HCT-116 [22]", "value": 48.4, "unit": "%"}, {"measurement": "Activity", "setting": "HepG2 [23]", "value": 52.3, "unit": "%"}, {"measurement": "viability at 1 µM", "setting": "N2a [24]", "value": 55.1, "unit": "%"}, {"measurement": "Activity", "setting": "HCT-116 [25]", "value": 5.15, "unit": "%"}, {"measurement": "viability at 1 µM", "setting": "HepG2 [26]", "value": 49.8, "unit": "%"}]}]}
